Source: patent US20260226056A1, “SUBSTITUTED 1H-PYRAZOLE-4-CARBOXAMIDES AS SARM1 INHIBITORS” (DISARM THERAPEUTICS, INC., priority 2023, published 2026)

Biological target: T1, hSARM1 (Homo sapiens, UniProt Q6SZW1)
T1 construct: This assay makes use of full length SARM1, which encompasses the ARM, SAM and TIR domains; made in house; host or cells: NRK1-HEK293T cells (transient transfection; cleared lysate used as enzyme)
T1 sequence (Q6SZW1 28-724): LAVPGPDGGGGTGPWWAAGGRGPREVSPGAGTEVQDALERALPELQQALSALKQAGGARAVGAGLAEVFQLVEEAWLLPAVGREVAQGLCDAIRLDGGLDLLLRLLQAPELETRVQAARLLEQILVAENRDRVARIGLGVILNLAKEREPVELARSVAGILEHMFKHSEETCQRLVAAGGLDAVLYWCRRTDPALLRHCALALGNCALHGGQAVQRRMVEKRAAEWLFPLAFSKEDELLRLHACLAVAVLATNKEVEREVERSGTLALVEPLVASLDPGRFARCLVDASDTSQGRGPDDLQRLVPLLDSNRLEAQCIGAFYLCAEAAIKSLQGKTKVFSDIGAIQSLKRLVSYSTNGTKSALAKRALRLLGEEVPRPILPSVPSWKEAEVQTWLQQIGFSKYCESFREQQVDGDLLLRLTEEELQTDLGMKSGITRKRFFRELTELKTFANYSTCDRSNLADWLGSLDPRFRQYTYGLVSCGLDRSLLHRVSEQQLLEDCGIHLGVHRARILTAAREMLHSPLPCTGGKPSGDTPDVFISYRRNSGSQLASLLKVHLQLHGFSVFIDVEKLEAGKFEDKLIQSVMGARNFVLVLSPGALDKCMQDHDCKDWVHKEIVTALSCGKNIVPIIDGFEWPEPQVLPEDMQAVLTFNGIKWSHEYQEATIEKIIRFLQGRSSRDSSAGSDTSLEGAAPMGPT
Experiment: ARM-SAM-TIR SARM1 IC50 Assay (NADase activity, NAD+ cleavage, RapidFire MS)
Assay type: biochemical
Settings: ARM-SAM-TIR lysate 5 μg/mL, 2 hrs. pre-incubation with compound, 5 μM NAD+, 2 hrs. incubation
Method: This describes an assay of ARM-SAM-TIR NADase activity and use of this assay to measure the efficacy of compounds of the present invention to block SARM1 mediated NAD+ cleavage. This assay was optimized in such a way as to characterize the efficacy of the compounds of the present invention to inhibit SARM1 activity and to calculate an IC50 value for each compound. This assay makes use of full length SARM1, which encompasses the ARM, SAM and TIR domains.
NRK1-HEK293T cells were seeded onto 150 cm^2 plates at 20×10^6 cells per plate. The next day, the cells were transfected with 15 μg ARM-SAM-TIR expression plasmid (SEQ ID NO: 1 as disclosed in WO 2019/236879, Pages 77-81; Paragraph) [0310]).
The cultures were supplemented with 1 mM NR at time of transfection to minimize toxicity from ARM-SAM-TIR overexpression. Forty-eight hours after transfection, cells were harvested, pelleted by centrifugation at 1,000 rpm (Sorvall ST 16R centrifuge, Thermo Fisher), and washed once with cold PBS (0.01 M phosphate buffered saline NaCl 0.138 M; KCl 0.0027 M; pH 7.4). The cells were resuspended in PBS with protease inhibitors (Complete™ protease inhibitor cocktail, Roche product #11873580001) and cell lysates were prepared by sonication (Branson Sonifer 450, output=3, 20 episodes of stroke). The lysates were centrifuged (12,000×g for 10 min at 4° C.) to remove cell debris and the supernatants (containing ARM-SAM-TIR protein) were stored at −80° C. for later use in the in vitro ARM-SAM-TIR NADase assay (see below). Protein concentration was determined by the Bicinchoninic (BCA) method and used to normalize lysate concentrations.
The enzymatic assay was performed in a 384-well polypropylene plate in Dulbecco's PBS buffer in a final assay volume of 20 μL. ARM-SAM-TIR lysate with a final concentration of 5 μg/mL was pre-incubated with the respective compound at 1% DMSO final assay concentration over 2 hrs. at room temperature. The reaction was initiated by addition of 5 μM final assay concentration of NAD+ as substrate. After a 2 hrs. ambient temperature incubation, the reaction was terminated with 40 μL of stop solution of 7.5% trichloroacetic acid in acetonitrile. The NAD+ and ADPR concentrations were analyzed by a RapidFire High Throughput Mass Spectrometry System (Agilent Technologies, Santa Clara, CA) using an API4000 triple quadrupole mass spectrometer (AB Sciex Framingham, MA).
Compounds having an activity designated as “A” provided an IC50<50 nM; compounds having an activity designated as “B” provided an IC50 51-100 nM; compounds having an activity designated as “C” provided an IC50 101-500 nM; compounds having an activity designated as “D” provided an IC50 501-1000 nM; compounds having an activity designated as “E” provided an IC50>1000 nM.

IC50 [nM] | Structure (SMILES)
> 1000 | O=C1NCN(C(=O)CCc2cnc(Cl)c(F)c2)c2[nH]nc(-c3ccncc3)c21 [Example 27, 7-(3-(6-Chloro-5-fluoropyridin-3-y1)propanoyl)-3-(pyridin-4-y1)-1,5,6,7-tetrahydro-4H-pyrazolo[3,4-d]pyrimidin-4-one]
< 50 | NC(=O)c1c(-c2ccncc2)n[nH]c1NC(=O)CCc1ccc(Cl)cc1 [Example 13, 5-(3-(4-Chlorophenyl)propanamido)-3-(pyridin-4-yl)-1H-pyrazole-4-carboxamide]
501 to 1000 | NC(=O)c1c(-c2ccncc2)n[nH]c1NC(=O)CCc1ccc(F)nc1 [Example 22, 5-(3-(6-Fluoropyridin-3-yl)propanamido)-3-(pyridin-4-yl)-1H-pyrazole-4-carboxamide]
101 to 500 | NC(=O)c1c(-c2ccnnc2)n[nH]c1NC(=O)CCc1cnc(Cl)c(F)c1 [Example 20, 5-(3-(6-Chloro-5-fluoropyridin-3-yl)propanamido)-3-(pyridazin-4-y1)-1H-pyrazole-4-carboxamide]
> 1000 | CNC(=O)c1c(-c2ccnnc2)n[nH]c1NC(=O)CCc1ccc(F)nc1 [Example 18, 5-(3-(6-Fluoropyridin-3-yl)propanamido)-N-methyl-3-(pyridazin-4-y1)-1H-pyrazole-4-carboxamide]
101 to 500 | O=C1NCN(C(=O)CCc2ccc(Cl)cc2)c2[nH]nc(-c3ccncc3)c21 [Example 25, 7-(3-(4-Chlorophenyl)propanoyl)-3-(pyridin-4-yl)-1,5,6,7-tetrahydro-4H-pyrazolo[3,4-d]pyrimidin-4-one]
101 to 500 | NC(=O)c1c(-c2ccncc2)n[nH]c1NC(=O)CCc1ccc(C(F)(F)F)cc1 [Example 23, 3-(Pyridin-4-y1)-5-(3-(4-(trifluoromethyl)phenyl)propanamido)-1H-pyrazole-4-carboxamide]
101 to 500 | O=C(CCc1ccc(F)nc1)Nc1[nH]nc2c1c(=O)[nH]c1cnccc12 [Example 2, 3-(6-Fluoropyridin-3-y1)-N-(4-oxo-4,5-dihydro-2H-pyrazolo[4,3-c][1,7]naphthyridin-3-yl)propanamide]
> 1000 | O=C1NCN(C(=O)CCc2ccc(Cl)nc2)c2[nH]nc(-c3ccncc3)c21 [Example 28, 7-(3-(6-Chloropyridin-3-yl)propanoyl)-3-(pyridin-4-yl)-1,5,6,7-tetrahydro-4H-pyrazolo[3,4-d]pyrimidin-4-one]
> 1000 | NC(=O)c1c(-c2ccnnc2)n[nH]c1NC(=O)CCc1ccc(F)nc1 [Example 19, 5-(3-(6-Fluoropyridin-3-yl)propanamido)-3-(pyridazin-4-yl)-1H-pyrazole-4-carboxamide]
101 to 500 | O=C1NCN(C(=O)CCc2ccc(Cl)c(F)c2)c2[nH]nc(-c3ccncc3)c21 [Example 26, 7-(3-(4-Chloro-3-fluorophenyl)propanoy1)-3-(pyridin-4-y1)-1,5,6,7-tetrahydro-4H-pyrazolo[3,4-d]pyrimidin-4-one]
< 50 | O=C(CCc1ccc(Cl)c(F)c1)Nc1[nH]nc2c1c(=O)[nH]c1cnccc12 [Example 4, 3-(4-Chloro-3-fluorophenyl)-N-(4-oxo-4,5-dihydro-2H-pyrazolo[4,3-c][1,7]naphthyridin-3-yl)propanamide]
101 to 500 | NC(=O)c1c(-c2ccncc2)n[nH]c1NC(=O)CCc1ccc(Cl)s1 [Example 15, 5-(3-(5-Chlorothiophen-2-yl)propanamido)-3-(pyridin-4-y1)-1H-pyrazole-4-carboxamide]
51 to 100 | O=C(CCc1cnc(Cl)c(F)c1)Nc1[nH]nc2c1c(=O)[nH]c1cnccc12 [Example 5, 3-(6-Chloro-5-fluoro-3-pyridyl)-N-(4-oxo-2,5-dihydropyrazolo[4,3-c][1,7]naphthyridin-3-y1)propanamide]
101 to 500 | NC(=O)c1c(-c2ccncc2)n[nH]c1NC(=O)CCc1ccc(F)c(F)c1 [Example 8, 5-(3-(3,4-Difluorophenyl)propanamido)-3-(pyridin-4-y1)-1H-pyrazole-4-carboxamide]
> 1000 | Cc1cnncc1-c1n[nH]c(NC(=O)CCc2ccc(F)nc2)c1C(N)=O [Example 16, 5-(3-(6-Fluoropyridin-3-yl)propanamido)-3-(5-methylpyridazin-4-yl)-1H-pyrazole-4-carboxamide]
101 to 500 | NC(=O)c1c(-c2ccncc2)n[nH]c1NC(=O)CCc1ccc(F)cc1 [Example 10, 5-(3-(4-Fluorophenyl)propanamido)-3-(pyridin-4-yl)-1H-pyrazole-4-carboxamide]
< 50 | O=C(CCc1ccc(Cl)cc1)Nc1[nH]nc2c1c(=O)[nH]c1cnccc12 [Example 3, 3-(4-Chlorophenyl)-N-(4-oxo-4,5-dihydro-2H-pyrazolo[4,3-c][1,7]naphthyridin-3-yl)propanamide]
101 to 500 | O=C(CCc1ccc(Cl)nc1)Nc1[nH]nc2c1c(=O)[nH]c1cnccc12 [Example 1, 3-(6-Chloropyridin-3-yl)-N-(4-oxo-4,5-dihydro-2H-pyrazolo[4,3-c][1,7]naphthyridin-3-yl)propanamide]
501 to 1000 | Cc1cnncc1-c1n[nH]c(NC(=O)CCc2ccc(Cl)c(F)c2)c1C(N)=O [Example 17, 5-(3-(4-Chloro-3-fluorophenyl)propanamido)-3-(5-methylpyridazin-4-y1)-1H-pyrazole-4-carboxamide]
51 to 100 | NC(=O)c1c(-c2ccncc2)n[nH]c1NC(=O)CCc1ccc(Cl)c(Cl)c1 [Example 7, 5-(3-(3,4-Dichlorophenyl)propanamido)-3-(pyridin-4-yl)-1H-pyrazole-4-carboxamide]
101 to 500 | NC(=O)c1c(-c2ccncc2)n[nH]c1NC(=O)CCc1ccc(Cl)nc1 [Example 9, 5-(3-(6-Chloropyridin-3-yl)propanamido)-3-(pyridin-4-y1)-1H-pyrazole-4-carboxamide]
101 to 500 | CNC(=O)c1c(-c2ccncc2)n[nH]c1NC(=O)CCc1ccc(Cl)cc1 [Example 24, 3-(3-(4-chlorophenyl)propanamido)-N-methyl-5-(pyridin-4-yl)-1H-pyrazole-4-carboxamide]
101 to 500 | NC(=O)c1c(-c2ccncc2)n[nH]c1NC(=O)CCc1cnc(Cl)c(F)c1 [Example 12, 5-(3-(6-Chloro-5-fluoropyridin-3-yl)propanamido)-3-(pyridin-4-yl)-1H-pyrazole-4-carboxamide]
501 to 1000 | NC(=O)c1c(-c2ccncc2)n[nH]c1NC(=O)CCc1cc(F)cc(F)c1 [Example 11, 5-(3-(3,5-Difluorophenyl)propanamido)-3-(pyridin-4-y1)-1H-pyrazole-4-carboxamide-]
< 50 | O=C(CCc1ccc(F)c(F)c1)Nc1[nH]nc2c1c(=O)[nH]c1cnccc12 [Example 6, 3-(3,4-Difluorophenyl)-N-(4-oxo-4,5-dihydro-2H-pyrazolo[4,3-c][1,7]naphthyridin-3-yl)propanamide]
51 to 100 | NC(=O)c1c(-c2ccnnc2)n[nH]c1NC(=O)CCc1ccc(Cl)c(F)c1 [Example 21, 5-(3-(4-Chloro-3-fluorophenyl)propanamido)-3-(pyridazin-4-yl)-1H-pyrazole-4-carboxamide]
